Results from patent US20240294542A1, “NLRP3 INFLAMMASOME INHIBITOR AND APPLICATION THEREOF” (TransThera Sciences (Nanjing), Inc., priority 2021, published 2024).

These compounds were tested on NLRP3 inflammasomes (assay: Inhibitory activity against NLRP3 inflammasome in THP-1 cells (LPS/nigericin stimulation, IL-1β ELISA)). Details: PMA-differentiated THP-1 cells; LPS 500 ng/mL 3 h, compound 1 h, nigericin 10 μg/mL 30 min; human IL-1β in supernatant by Elisa; read-out: IC50 (nM), inhibitory activities against NLRP3 in THP-1 cells.
Assay type: cell-based
Method: Test Samples: The compounds of the present invention prepared according to exemplary methods.
THP-1 is Immortalized Human Macrophage Cell Line
• Test instrument: microplate reader (made from PE)
• 1. […] Culture plate coating: 100 μL polylysine solution was added into a 96-well cell culture plate, and the reaction was carried out at 37° C. for 30 min. The solution was discarded, and PBS was washed twice for later use. • 3. […] The resulting mixture was uniformly mixed, and finally diluted by 1:1000 times, and the cells were placed in a carbon dioxide cell incubator at 37° C. and cultured for 1 h. • c. Nigericin was added to each well at a final concentration of 10 μg/mL, and the plate was placed in a carbon dioxide cell incubator at 37° C. and cultured for 30 min. • d. The media in wells were transferred to a new culture plate, and then the plate was centrifuged at 3000 rpm for 5 min. Then the supernatant was transferred to a new 96-well plate. • e. The collected cell culture supernatant samples were tested for the content of human IL-1β by using a commercial Elisa kit, as specified in the instructions.

Row | SMILES | IC50 [nM]
1 | CN1CCC[C@@H](Nc2nnc(-c3ccc(C4CC4)cc3O)c3c2CCCC3)C1 [Compound 5a, (R)-5-cyclopropyl-2-(4-((1-methylpiperidin-3-yl)amino)-5,6,7,8-tetrahydrophthalazin-1-yl)phenol] | 5
2 | CN1CCC[C@@H](Nc2nnc(-c3ccc(C#N)cc3O)c3ccccc23)C1 [Compound 42, (R)-3-hydroxy-4-(4-((1-methylpiperidin-3-yl)amino)phthalazin-1-yl)benzonitrile] | 13
3 | N#Cc1ccc(-c2nnc(N[C@@H]3CCCN(C4CC4)C3)c3ccccc23)c(O)c1 [Compound 111, (R)-4-(4-((1-cyclopropylpiperidin-3-yl)amino)phthalazin-1-yl)-3-hydroxybenzonitrile] | 4
4 | CN1CCC[C@@H](Nc2nnc(-c3ccc(F)cc3O)c3c2CCCC3)C1 [Compound 24a, (R)-5-fluoro-2-(4-((1-methylpiperidin-3-yl)amino)-5,6,7,8-tetrahydrophthalazin-1-yl)phenol] | 1
5 | CC(C)N1CCC[C@@H](Nc2nnc(-c3ccc(C#N)cc3O)c3ccccc23)C1 [Compound 125, (R)-3-hydroxy-4-(4-((1-isopropylpiperidin-3-yl)amino)phthalazin-1-yl)benzonitrile] | 3
6 | Cc1ccc(-c2nnc(N[C@@H]3CCCN(C)C3)c3c2C2CCC3CC2)c(O)c1 [Compound 6a, (R)-5-methyl-2-(4-((1-methylpiperidin-3-yl)amino)-5,6,7,8-tetrahydro-5,8-ethanophthalazin-1-yl)phenol] | 1
7 | COc1ccc(-c2nnc(N[C@@H]3CCCN(C)C3)c3c2CCCC3)c(O)c1 [Compound 23a, (R)-5-methoxy-2-(4-((1-methylpiperidin-3-yl)amino)-5,6,7,8-tetrahydrophthalazin-1-yl)phenol] | 6
8 | Cc1ccc(-c2nnc(N[C@@H]3CCCN(C)C3)c3cc(F)ccc23)c(O)c1 [Compound 8, (R)-2-(6-fluoro-4-((1-methylpiperidin-3-yl)amino)phthalazin-1-yl)-5-methylphenol] | 3
9 | Cc1ccc2c(-c3ccc(C4CC4)cc3O)nnc(N[C@@H]3CCCN(C)C3)c2c1 [Compound 90, (R)-5-cyclopropyl-2-(6-methyl-4-((1-methylpiperidin-3-yl)amino)phthalazin-1-yl)phenol] | 7
10 | CN1CCC[C@@H](Nc2nnc(-c3ccc(C#N)cc3O)c3ccncc23)C1 [Compound 79, (R)-3-hydroxy-4-(4-((1-methylpiperidin-3-yl)amino)pyrido[3,4-d]pyridazin-1-yl)benzonitrile] | 13
11 | Cc1ccc(-c2nnc(N[C@@H]3CCCN(C)C3)c3c2CCCCC3)c(O)c1 [Compound 26a, (R)-5-methyl-2-(4-((1-methylpiperidin-3-yl)amino)-6,7,8,9-tetrahydro-5H-cyclohepta[d]pyridazin-1-yl)phenol] | 4
12 | Cc1ccc(-c2nnc(N[C@@H]3CCCN(C)C3)c3cnccc23)c(O)c1 [Compound 50, (R)-5-methyl-2-(4-((1-methylpiperidin-3-yl)amino)pyrido[3,4-d]pyridazin-1-yl)phenol] | 1
13 | C[C@]1(O)C[C@@H](Nc2nnc(-c3ccc(C(F)(F)F)cc3O)c3ccccc23)C1 [Compound 129, 2-(4-(((cis)-3-hydroxy-3-methylcyclobutyl)amino)phthalazin-1-yl)-5-(trifluoromethyl)phenol] | 4
14 | Cc1ccc(-c2nnc(N[C@@H]3CCCN(C)C3)c3c2CCCC3)c(O)c1F [Compound 29a, (R)-2-fluoro-3-methyl-6-(4-((1-methylpiperidin-3-yl)amino)-5,6,7,8-tetrahydrophthalazin-1-yl)phenol] | 1
15 | CN1CCC[C@@H](Nc2nnc(-c3ccc(Br)cc3O)c3ccccc23)C1 [Compound 73, (R)-5-bromo-2-(4-((1-methylpiperidin-3-yl)amino)phthalazin-1-yl)phenol] | 1
16 | CN1CCC[C@@H](Nc2nnc(-c3ccc(C(F)F)cc3O)c3ccccc23)C1 [Compound 87, (R)-5-(difluoromethyl)-2-(4-((1-methylpiperidin-3-yl)amino)phthalazin-1-yl)phenol] | 2
17 | Cc1ccc(-c2nnc(N[C@@H]3CCCN(C)C3)c3c2CCC3)c(O)c1 [Compound 3a, (R)-5-methyl-2-(4-((1-methylpiperidin-3-yl)amino)-6,7-dihydro-5H-cyclopenta[d]pyridazin-1-yl)phenol] | 4
18 | Cc1ccc(-c2nnc(N[C@@H]3CCCN(C)C3)c3c(C)cccc23)c(O)c1 [Compound 5, (R)-5-methyl-2-(5-methyl-4-((1-methylpiperidin-3-yl)amino)phthalazin-1-yl)phenol] | 14

Row | SMILES | IC50 [nM]
19 | CN1C[C@H](F)C[C@@H](Nc2nnc(-c3ccc(C#N)cc3O)c3ccccc23)C1 [Compound 123, 4-(4-(((3R,5R)-5-fluoro-1-methylpiperidin-3-yl)amino)phthalazin-1-yl)-3-hydroxybenzonitrile] | 6
20 | Cc1ccc(-c2nnc(N[C@@H]3CCCN(C)C3)c3cc(Br)ccc23)c(O)c1 [Compound 60, (R)-2-(6-bromo-4-((1-methylpiperidin-3-yl)amino)phthalazin-1-yl)-5-methylphenol] | 13
21 | Cc1ccc(-c2nnc(N[C@@H]3CCCN(C)C3)c3ncccc23)c(O)c1 [Compound 38, (R)-5-methyl-2-(8-((1-methylpiperidin-3-yl)amino)pyrido[2,3-d]pyridazin-5-yl)phenol] | 12
22 | CN1CCC[C@@H](Nc2nnc(-c3ccc(C4CC4)cc3O)c3ccccc23)C1 [Compound 72, (R)-5-cyclopropyl-2-(4-((1-methylpiperidin-3-yl)amino)phthalazin-1-yl)phenol] | 1
23 | Cc1ccc(-c2nnc(N[C@@H]3CCCN(C)C3)c3ccncc23)c(O)c1 [Compound 49, (R)-5-methyl-2-(1-((1-methylpiperidin-3-yl)amino)pyrido[3,4-d]pyridazin-4-yl)phenol] | 9
24 | N#Cc1ccc(-c2nnc(N[C@@H]3CCCN(C4CC4)C3)c3c2CCCC3)c(O)c1 [Compound 21a, (R)-4-(4-((1-cyclopropylpiperidin-3-yl)amino)-5,6,7,8-tetrahydrophthalazin-1-yl)-3-hydroxybenzonitrile] | 14
25 | COc1ccc(-c2nnc(N[C@@H]3CCCN(C)C3)c3ccccc23)c(O)c1 [Compound 74, (R)-5-methoxy-2-(4-((1-methylpiperidin-3-yl)amino)phthalazin-1-yl)phenol] | 6
26 | N#Cc1ccc(-c2nnc(N[C@@H]3CCCOC3)c3ccccc23)c(O)c1 [Compound 112, (R)-3-hydroxy-4-(4-((tetrahydro-2H-pyran-3-yl)amino)phthalazin-1-yl)benzonitrile] | 16
27 | Cc1ccc(-c2nnc(N[C@@H]3CCCN(C)C3)c3c2CCCC3)c(O)c1 [Compound 1a, (R)-5-methyl-2-(4-((1-methylpiperidin-3-yl)amino)-5,6,7,8-tetrahydrophthalazin-1-yl)phenol] | 7
28 | CN1CCC[C@@H](Nc2nnc(-c3ccc(C#N)cc3O)c3c2CCCC3)C1 [Compound 2a, (R)-3-hydroxy-4-(4-((1-methylpiperidin-3-yl)amino)-5,6,7,8-tetrahydrophthalazin-1-yl)benzonitrile] | 3
29 | Cc1ccc2c(-c3ccc(C#N)cc3O)nnc(N[C@@H]3CCCN(C)C3)c2c1 [Compound 55, (R)-3-hydroxy-4-(6-methyl-4-((1-methylpiperidin-3-yl)amino)phthalazin-1-yl)benzonitrile] | 4
30 | Cc1ccc(-c2nnc(N[C@@H]3CCCN(C)C3)c3cc(C4CC4)ccc23)c(O)c1 [Compound 32, (R)-2-(6-cyclopropyl-4-((1-methylpiperidin-3-yl)amino)phthalazin-1-yl)-5-methylphenol] | 15
31 | Cc1ccc(-c2nnc(N[C@@H]3CCCN(C)C3)c3cc(C#N)ccc23)c(O)c1 [Compound 20, (R)-1-(2-hydroxy-4-methylphenyl)-4-((1-methylpiperidin-3-yl)amino)phthalazine-6-carbonitrile] | 12
32 | N#Cc1ccc(-c2nnc(N[C@@H]3CCCN(CCO)C3)c3ccccc23)c(O)c1 [Compound 127, (R)-3-hydroxy-4-(4-((1-(2-hydroxyethyl)piperidin-3-yl)amino)phthalazin-1-yl)benzonitrile] | 4
33 | Cc1ccc(-c2nnc(N[C@@H]3CCCN(C)C3)c3cc(C(F)(F)F)ccc23)c(O)c1 [Compound 24, (R)-5-methyl-2-(4-((1-methylpiperidin-3-yl)amino)-6-(trifluoromethyl)phthalazin-1-yl)phenol] | 14
34 | Cc1ccc(-c2nnc(N[C@@H]3CCCN(C)C3)c3ccccc23)c(O)c1 [Compound 1, (R)-5-methyl-2-(4-((1-methylpiperidin-3-yl)amino)phthalazin-1-yl)phenol] | 1.8
35 | Cc1ccc(-c2nnc(N[C@@H]3CCCN(C)C3)c3sccc23)c(O)c1 [Compound 70, (R)-5-methyl-2-(7-((1-methylpiperidin-3-yl)amino)thieno[2,3-d]pyridazin-4-yl)phenol] | 1
36 | C[C@]1(O)C[C@@H](Nc2nnc(-c3ccc(C(F)(F)F)cc3O)c3c2CCCC3)C1 [Compound 32a, 2-(4-(((cis)-3-hydroxy-3-methylcyclobutyl)amino)-5,6,7,8-tetrahydrophthalazin-1-yl)-5-(trifluoromethyl)phenol] | 7
